Blank lines part the entries; values can stand above or below the compound they belong to. Square brackets hold non-standard residues; d marks the D form. Peptide text beside a SMILES is read from it. * marks the point of attachment. CPTA = 4-(1,4,8,11-tetraazacyclotetradec-1-yl)-methyl benzoic acid chelator, O=C(c1ccc(CN2CCCNCCNCCCNCC2)cc1)*; DOTA = O=C(O)CN1CCN(CC(=O)O)CCN(CC(=O)*)CCN(CC(=O)O)CC1; Nle = CCCC[C@H](N)C(=O)O; GABA = NCCCC(=O)O; βAla = NCCC(=O)O
Experiments:
mouse GRP receptor = target: T1, mouse GRP receptor (Mus musculus, UniProt P21729); test: Competitive binding vs [^125I-Tyr^4] BN, autoradiography of mouse pancreas tissue sections; settings: displacement of [^125I-Tyr^4] BN, ± SD, number of independent studies in brackets
T1 construct: mouse pancreas tissue (expressing mouse GRP receptor); from tissue; host or cells: mouse pancreas tissue sections
T1 sequence (P21729 whole entry): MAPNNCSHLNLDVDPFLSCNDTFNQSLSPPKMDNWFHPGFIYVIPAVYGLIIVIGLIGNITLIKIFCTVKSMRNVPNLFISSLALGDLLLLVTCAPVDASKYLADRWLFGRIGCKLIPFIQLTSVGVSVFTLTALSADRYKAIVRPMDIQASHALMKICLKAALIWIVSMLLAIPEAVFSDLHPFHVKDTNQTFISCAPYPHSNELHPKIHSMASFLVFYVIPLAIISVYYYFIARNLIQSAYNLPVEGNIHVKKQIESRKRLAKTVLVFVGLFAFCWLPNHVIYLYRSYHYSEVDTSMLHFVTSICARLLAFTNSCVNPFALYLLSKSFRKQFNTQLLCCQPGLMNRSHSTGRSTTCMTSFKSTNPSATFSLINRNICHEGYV
Protocol: (§1) Using [^125I-Tyr^4] BN as a GRP receptor preferring ligand, the IC50 values of the ^natCu/^natIn-labeled peptides were measured by in vitro autoradiography of sections of human prostate cancer tissue overexpressing GRP receptors or mouse pancreas tissue expressing mouse GRP receptors. The prostate cancer tissues originated from samples investigated previously or collected prospectively at the Institute of Pathology of the University of Berne in accordance with international ethical guidelines, including informed written consent and approval by the institutional review board. The binding affinity profile of [Cu^II]-BZH7 for three bombesin receptor subtypes was determined by using [^125I-D-Tyr^6, βAla^11, Phe^13, Nle^14] BN(6–14) as an universal radioligand. The procedures were described in detail previously.
(§2) Competitive binding assays were performed with human GRP receptor-positive cancerous tissue and mouse pancreas tissue (expressing mouse GRP receptor) using [^125I-Tyr^4]bombesin as radioligand. Table 2 summarizes the binding affinities of the metallopeptides to GRP receptors of mouse and human origin.

human GRP receptor = target: T2, human GRP receptor (Homo sapiens, UniProt P30550); test: Competitive binding vs [^125I-Tyr^4] BN, autoradiography of human prostate cancer tissue sections; settings: displacement of [^125I-Tyr^4] BN, ± SD, number of independent studies in brackets
T2 construct: in vitro autoradiography of sections of human prostate cancer tissue overexpressing GRP receptors; from tissue; host or cells: human prostate cancer tissue sections (patient samples, Institute of Pathology, University of Berne)
T2 sequence (P30550 whole entry): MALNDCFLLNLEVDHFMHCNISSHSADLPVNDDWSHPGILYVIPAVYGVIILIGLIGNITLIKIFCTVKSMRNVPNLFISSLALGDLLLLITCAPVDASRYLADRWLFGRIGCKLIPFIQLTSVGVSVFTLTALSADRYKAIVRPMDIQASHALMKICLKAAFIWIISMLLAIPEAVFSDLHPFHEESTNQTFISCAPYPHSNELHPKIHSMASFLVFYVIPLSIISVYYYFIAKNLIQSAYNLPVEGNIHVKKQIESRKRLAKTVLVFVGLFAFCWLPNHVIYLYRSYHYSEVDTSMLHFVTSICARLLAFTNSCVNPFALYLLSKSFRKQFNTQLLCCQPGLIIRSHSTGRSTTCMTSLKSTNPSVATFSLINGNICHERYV
Protocol: as §1, §2

GRP-R [1] = target: T3, GRP-R (Homo sapiens, UniProt P30550); test: BN receptor subtype profile with universal radioligand [^125I-D-Tyr^6, βAla^11, Phe^13, Nle^14] BN(6–14), human cancerous tissues; settings: human cancerous tissue, read-out: binding affinity to GRP-R
T3 construct: from tissue
T3 sequence (P30550 whole entry): as above
Protocol: as §1
(§3) The most promising peptide, Cu-BZH7, was also studied with respect to BN receptor subtype profiles using human cancerous tissues shown to express predominantly a single bombesin receptor subtype.

BNRS-3 [2] = target: T4, BNRS-3 (Homo sapiens, UniProt P32247); test: as above; settings: human cancerous tissue, read-out: binding affinity to BNRS-3
T4 construct: from tissue
T4 sequence (P32247 1-399): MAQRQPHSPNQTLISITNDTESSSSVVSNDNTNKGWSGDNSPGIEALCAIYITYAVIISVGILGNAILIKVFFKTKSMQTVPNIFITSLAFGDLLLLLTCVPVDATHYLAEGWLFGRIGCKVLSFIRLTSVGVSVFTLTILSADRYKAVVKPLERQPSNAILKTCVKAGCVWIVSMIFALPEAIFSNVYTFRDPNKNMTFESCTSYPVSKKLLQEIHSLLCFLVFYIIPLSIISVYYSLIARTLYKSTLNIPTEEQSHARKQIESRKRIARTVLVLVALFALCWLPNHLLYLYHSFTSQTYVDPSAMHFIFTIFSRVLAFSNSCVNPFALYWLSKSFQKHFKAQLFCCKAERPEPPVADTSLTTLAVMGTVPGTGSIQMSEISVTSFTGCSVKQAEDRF
Protocol: as §1, §3

NMB-R [3] = target: T5, NMB-R (Homo sapiens, UniProt P28336); test: as above; settings: human cancerous tissue, read-out: binding affinity to NMB-R
T5 construct: from tissue
T5 sequence (P28336 whole entry): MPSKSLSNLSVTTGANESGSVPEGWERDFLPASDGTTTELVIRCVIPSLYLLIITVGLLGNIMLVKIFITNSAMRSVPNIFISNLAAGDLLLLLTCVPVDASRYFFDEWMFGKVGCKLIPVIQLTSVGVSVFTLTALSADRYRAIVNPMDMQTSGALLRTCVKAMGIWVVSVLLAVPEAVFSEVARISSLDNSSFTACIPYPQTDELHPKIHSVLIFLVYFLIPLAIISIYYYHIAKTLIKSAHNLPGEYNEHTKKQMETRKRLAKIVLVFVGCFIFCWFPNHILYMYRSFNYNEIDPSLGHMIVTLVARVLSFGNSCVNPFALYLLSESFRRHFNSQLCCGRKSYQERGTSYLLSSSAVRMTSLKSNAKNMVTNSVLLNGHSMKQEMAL
Protocol: as §1, §3

PC-3 cells = test: Composition of radioactivity externalized from PC-3 cells (metabolites); assay type: cell-based, human
Protocol: To identify the composition of the externalized peptides, [^111In]-BZH4 (^111In-DOTA-GABA-D-Tyr-Gln-Trp-Ala-Val-βAla-His-Leu-Nle-NH2) was used as a surrogate peptide with high specific activity, required for metabolic studies. Upon 2 h of internalization and acid wash, the externalized radioactivity after 2 h incubation already consisted of approximately 84% metabolites (^111In-DOTA: 14%; ^111In-DOTA-GABA-D-Tyr-Gln: main peak, 64%; ^111In-DOTA-GABA-D-Tyr-Gln-Trp-Ala-Val-βAla: 6%) and 16% intact peptide.

BNRS-3 [4] = settings: read-out: affinity to BNRS-3; cited from earlier work
GRP-R [5] = settings: read-out: affinity to GRP-R; cited from earlier work
NMB-R [6] = settings: read-out: affinity to NMB-R; cited from earlier work
[7] = 2 h internalization, acid wash, 2 h incubation

Compound: CCCC[C@H](NC(=O)[C@H](CC(C)C)NC(=O)[C@H](Cc1c[nH]cn1)NC(=O)CCNC(=O)[C@@H](NC(=O)[C@H](C)NC(=O)[C@H](Cc1c[nH]c2ccccc12)NC(=O)[C@H](CCC(N)=O)NC(=O)[C@@H](Cc1ccc(O)cc1)NC(=O)CCCNC(=O)CN1CCN(CC(=O)O)CCN(CC(=O)O)CCN(CC(=O)O)CC1)C(C)C)C(N)=O [[Cu^II]-BZH4, Cu^II-DOTA-GABA-[D-Tyr^6, βAla^11, Nle^14] BN(6–14)] ({DOTA-GABA}-[dY]QWAV[βAla]HL[Nle]-NH2)
- IC50 (mouse GRP receptor): 1.1 ± 0.3 nM
- IC50 (human GRP receptor): 26.3 ± 3.5 nM

- IC50 (GRP-R [1]): 0.3 ± 0.07 nM
- IC50 (BNRS-3 [2]): 1.4 ± 0.6 nM
- IC50 (NMB-R [3]): 0.27 ± 0.16 nM
Compound: CSCC[C@H](NC(=O)[C@H](CC(C)C)NC(=O)[C@H](Cc1c[nH]cn1)NC(=O)CCNC(=O)[C@@H](NC(=O)[C@H](C)NC(=O)[C@H](Cc1c[nH]c2ccccc12)NC(=O)[C@H](CCC(N)=O)NC(=O)c1ccc(CN2CCCNCCNCCCNCC2)cc1)C(C)C)C(N)=O [[Cu^II]-BZH7, Cu^II-CPTA-[βAla^11] BN(7–14)]

Compound: CCCC[C@H](NC(=O)[C@H](CC(C)C)NC(=O)[C@H](Cc1c[nH]cn1)NC(=O)CCNC(=O)[C@@H](NC(=O)[C@H](C)NC(=O)[C@H](Cc1c[nH]c2ccccc12)NC(=O)[C@H](CCC(N)=O)NC(=O)[C@@H](Cc1ccc(O)cc1)NC(=O)CCCNC(=O)CN1CCN(CC(=O)O)CCN(CC(=O)O)CCN(CC(=O)O)CC1)C(C)C)C(N)=O [[^111In]-BZH4, ^111In-DOTA-GABA-D-Tyr-Gln-Trp-Ala-Val-βAla-His-Leu-Nle-NH2, metal not drawn] ({DOTA-GABA}-[dY]QWAV[βAla]HL[Nle]-NH2)
- externalized radioactivity: ^111In-DOTA (PC-3 cells): 14%
- externalized radioactivity: metabolites (total) (PC-3 cells): approximately 84%
- externalized radioactivity: ^111In-DOTA-GABA-D-Tyr-Gln (main peak) (PC-3 cells; [7]): 64%
- externalized radioactivity: ^111In-DOTA-GABA-D-Tyr-Gln-Trp-Ala-Val-βAla (PC-3 cells; [7]): 6%

Compound: Cu^II-CPTA -[D-Tyr^6, βAla^11, Nle^14] BN(6–14) [[Cu^II]-BZH5]
- IC50 (mouse GRP receptor): 0.6 ± 0.2 nM
- IC50 (human GRP receptor): 3.2 ± 0.5 nM

Compound: Cu^II-CPTA-[D-Tyr^6, βAla^11] BN(6–14) ({CPTA}-[dY]QWAV[βAla]HLM-NH2; also: Cu(II) complex of CPTA) [[Cu^II]-BZH6]
- IC50 (mouse GRP receptor): 0.8 ± 0.2 nM
- IC50 (human GRP receptor): 1 ± 0.2 nM

- IC50 (mouse GRP receptor): 0.8 ± 0.2 nM
- IC50 (human GRP receptor): 1.8 ± 0.6 nM
Compound: Cu^II-CPTA-[Gly^6, βAla^11] BN(6–14) [[Cu^II]-BZH8]

Compound: DOTA-PEG4-BN(7–14) [[^natGa/^natLu]-DOTA-PESIN]
- IC50 (BNRS-3 [4]): > 1000 nM
- IC50 (GRP-R [5]): 10 nM
- IC50 (NMB-R [6]): 12.5 nM

Compound: In^III-DOTA-GABA-[D-Tyr^6, βAla^11, Nle^14] BN(6–14) [[In^III]-BZH4]
- IC50 (mouse GRP receptor): 0.8 ± 0.4 nM
- IC50 (human GRP receptor): 41.5 ± 2.5 nM

Compound: [(N4-Bzdig)^0] BN (7–14)
- IC50 (BNRS-3 [4]): 37 nM
- IC50 (GRP-R [5]): 0.9 nM
- IC50 (NMB-R [6]): 0.65 nM

Reference: paper PMC3443097, “Evolution of Bombesin Conjugates for Targeted PET Imaging of Tumors” (PLoS ONE, 2012)
